Like-named read-outs stand apart in the source and are kept apart here.
What was measured:
[1] = Pharmacokinetics study of KDG-0271 in male CD1 mice (Example 4); format: in vivo; conditions: for F: bioavailability vs 1 mg/kg IV; for AUC(0-inf) / AUC(0-t) / Cmax / Tmax / half-life / concentration at 0.25 h / concentration at 0.5 h / concentration at 1 h / concentration at 2 h / concentration at 4 h / concentration at 8 h / MRT inf: mouse, plasma; for MRT inf: read-out: MRTInf_obs
Protocol: (§1) A standard PK study of KDG-0271 was performed in male CD1 mice dosed with a single intravenous, oral or intraperitoneal dose of KDG-0271. The parameters of the PK study are described in Table 26. Dosing solutions were freshly made prior to use, and were in the form of a suspension. […] For IV and IP, after collection, plasma samples from the same time point were pooled, and the pooled samples were analyzed by LC/MS/MS.
Sample preparation and analysis were conducted in accordance with the method described in Example 3.
(§2) BLOQ=Below quantifiable limit of 1 ng/mL. PK parameters were estimated by non-compartmental model using WinNonlin 6.1. The PO bioavailability (F %) was calculated as following:
(§3) AUClast-PO/AUCINF-PO>80%: F=(AUCINF-PO*DoseIV)/(mean AUCINF-IV*DosePO) AUClast-PO/AUCINF-PO≤80% or AUCINF was not available: F=(AUClast-PO*DoseIV)/(mean AUClast-IV*DosePO).
(§4) The IP bioavailability (F %) was calculated as following:
(§5) AUClast-IP/AUCINF-IP>80%: F=(AUCINF-IP*DoseIV)/(mean AUCINF-IV*DoseIP) AUClast-IP/AUCINF-IP≤80% or AUCINF was not available: F=(AUClast-IP*DoseIV)/(mean AUClast-IV*DoseIP).

[2] = Pharmacokinetics study of KDG-0388 in male CD1 mice (Example 2); format: in vivo; conditions: for F: bioavailability vs 1 mg/kg IV; for MRT inf: read-out: MRTInf_obs
Protocol: as §1, with “KDG-0388” for “KDG-0271”, “single” for “single intravenous,”, “KDG-0388.” for “KDG-0271.”, “10.” for “26.”
The desired serial concentrations of working solutions were achieved by diluting stock solution of analyte with 50% acetonitrile in water solution. 5 μL of working solutions (2, 4, 10, 20, 100, 400, 2000, 4000 ng/mL) were added to 10 μL of blank CD1 mouse plasma to achieve calibration standards of 1-2000 ng/mL (1, 2, 5, 10, 50, 200, 1000, 2000 ng/mL) in a total volume of 15 μL. Five quality control (QC) samples at 2 ng/mL, 5 ng/mL, 50 ng/mL, 800 ng/mL and 1600 ng/mL for plasma were prepared independently of those used for the calibration curves. These QC samples were prepared on the day of analysis in the same way as calibration standards.
15 μL standards, 15 μL QC samples and 15 μL unknown samples (10 μL plasma with 5 μL blank solution) were added to 200 μL of acetonitrile containing IS mixture for precipitating protein. Then, the samples were vortexed for 30 seconds. After centrifugation at 4 degrees Celsius, 4000 rpm for 15 minutes, the supernatant was diluted three times with water. 25 μL of diluted supernatant was injected into the LC/MS/MS system for quantitative analysis.
as §2, §3, §4, §5

[3] = 30 mg/kg IP, read-out: Concentration IP_Mean
[4] = 50 mg/kg PO, read-out: Concentration PO_Mean
[5] = male, mouse, plasma, CD1 mice, 1 mg/kg IV
[6] = male, mouse, CD1 mice, plasma, 1 mg/kg IV, read-out: Concentration IV_Mean
[7] = mouse, plasma, male CD1 mice, 200 mg/kg IP
[8] = mouse, plasma, male CD1 mice, 200 mg/kg PO
[9] = mouse, male CD1 mice, plasma, 200 mg/kg IP, read-out: Concentration IP_Mean
[10] = mouse, male CD1 mice, plasma, 200 mg/kg PO, read-out: Concentration PO_Mean

## Cc1n[nH]c2c1C(c1cc(C#CC3CN(C(=O)OC(C)(C)C)C3)cc(CO)c1)(C(C)C)C(C#N)=C(N)O2 (stereo not shown) [KDG-0271, tert-butyl 3-[2-(3-[6-amino-5-cyano-4-isopropyl-3-methyl-1H-pyrano[2,3-c]pyrazol-4-yl]-5-(hydroxymethyl)phenyl)ethynyl]azetidine-1-carboxylate]
[1]; 30 mg/kg IP
  AUC_%Extrap_obs: 2.65%
  AUClast/D: 174 kg·ng·h/mL/mg
  F: 179%
  AUC(0-inf): 5360 ng·h/mL
  AUC(0-t): 5220 ng·h/mL
  Cmax: 3170 ng/mL
  Tmax: 0.25 h
  half-life: 1.6 h
  MRT inf: 1.98 h
[1]; 50 mg/kg PO
  AUC_%Extrap_obs: 0.172%
  AUClast/D: 38.1 kg·ng·h/mL/mg
  F: 38.1%
  AUC(0-inf): 1910 ng·h/mL
  AUC(0-t): 1900 ng·h/mL
  Cmax: 872 ng/mL
  Tmax: 0.5 h
  half-life: 0.851 h
  MRT inf: 1.49 h
[1]; [3]
  concentration at 0.25 h: 3170 ng/mL
  concentration at 0.5 h: 2420 ng/mL
  concentration at 1 h: 1580 ng/mL
  concentration at 2 h: 841 ng/mL
  concentration at 4 h: 317 ng/mL
  concentration at 8 h: 61.4 ng/mL
[1]; [4]
  concentration at 0.25 h: 750 ng/mL
  concentration at 0.5 h: 872 ng/mL
  concentration at 1 h: 857 ng/mL
  concentration at 2 h: 350 ng/mL
  concentration at 4 h: 72 ng/mL
  concentration at 8 h: 2.67 ng/mL
[1]; single dose 1 mg/kg IV, 50 mg/kg PO or 30 mg/kg IP, entire experiment
  clinical symptoms: No abnormal clinical symptoms were observed

## Cc1n[nH]c2c1C(c1cc(C#C[C@H]3C[C@@H](NC(=O)OC(C)(C)C)C3)cc(CO)c1)(C(C)C)C(C#N)=C(N)O2 (stereo partly shown) [KDG-0388, tert-butyl N-[(1s,3s)-3-[2-(3-[6-amino-5-cyano-4-isopropyl-3-methyl-1H-pyrano[2,3-c]pyrazol-4-yl]-5-(hydroxymethyl)phenyl)ethynyl]cyclobutyl]carbamate]
[2]; CD1 mice, 1 mg/kg IV
  AUC_%Extrap_obs: 3.44%
  AUClast/D: 76.6 kg·ng·h/mL/mg
  Cl_obs: 210 mL/min/kg
  Vss_obs: 8.80 L/kg
[2]; CD1 mice, plasma, 1 mg/kg IV, 8 h
  Concentration IV_Mean: BLOQ
[2]; male CD1 mice, 200 mg/kg IP
  AUC_%Extrap_obs: 6.08%
  AUClast/D: 136 kg·ng·h/mL/mg
  F: 183%
[2]; male CD1 mice, 200 mg/kg PO
  AUC_%Extrap_obs: 0.218%
  AUClast/D: 16.9 kg·ng·h/mL/mg
  F: 21.4%
[2]; male CD1 mice, plasma, 200 mg/kg PO, 24 h
  Concentration PO_Mean: BLOQ
[2]; male CD1 mice, single dose 200 mg/kg PO or 200 mg/kg IP, entire experiment
  clinical symptoms: No abnormal clinical symptoms were observed
[2]; [5]
  AUC(0-inf): 79.3 ng·h/mL
  AUC(0-t): 76.6 ng·h/mL
  C0: 325 ng/mL
  half-life: 1.11 h
  MRT inf: 0.698 h
[2]; male, mouse, CD1 mice, plasma, 1 mg/kg IV, 0.083 h, read-out: Concentration IV_Mean
  concentration at 0.083 h: 186 ng/mL
[2]; [6]
  concentration at 0.25 h: 60.6 ng/mL
  concentration at 0.5 h: 24.9 ng/mL
  concentration at 1 h: 11.8 ng/mL
  concentration at 2 h: 4.86 ng/mL
  concentration at 4 h: 1.71 ng/mL
[2]; [7]
  AUC(0-inf): 29000 ng·h/mL
  AUC(0-t): 27200 ng·h/mL
  Cmax: 7520 ng/mL
  Tmax: 0.25 h
  half-life: 7.88 h
  MRT inf: 6.33 h
[2]; [8]
  AUC(0-inf): 3400 ng·h/mL
  AUC(0-t): 3390 ng·h/mL
  Cmax: 719 ng/mL
  Tmax: 2 h
  half-life: 1.69 h
  MRT inf: 3.53 h
[2]; [9]
  concentration at 0.25 h: 7520 ng/mL
  concentration at 0.5 h: 6170 ng/mL
  concentration at 1 h: 5460 ng/mL
  concentration at 2 h: 3910 ng/mL
  concentration at 4 h: 2230 ng/mL
  concentration at 16 h: 247 ng/mL
[2]; mouse, male CD1 mice, plasma, 200 mg/kg IP, 8 h, read-out: Concentration IP_Mean
  concentration at 8 h: 633 ng/mL
[2]; mouse, male CD1 mice, plasma, 200 mg/kg IP, 24 h, read-out: Concentration IP_Mean
  concentration at 24 h: 155 ng/mL
[2]; [10]
  concentration at 0.25 h: 215 ng/mL
  concentration at 0.5 h: 347 ng/mL
  concentration at 1 h: 475 ng/mL
  concentration at 2 h: 719 ng/mL
  concentration at 4 h: 417 ng/mL
  concentration at 16 h: 3.04 ng/mL
[2]; mouse, male CD1 mice, plasma, 200 mg/kg PO, 8 h, read-out: Concentration PO_Mean
  concentration at 8 h: 84.3 ng/mL

Reference: US20230382920A1, “SHMT Inhibitors” (The Trustees of Princeton University, priority 2020, published 2023)
